From patent US20240216476A1, “COMBINATION OF BITTER RECEPTOR AGONIST AND GUT-SIGNALING COMPOUND” (AARDVARK THERAPEUTICS, INC., priority 2021, published 2024)
Where two headings read alike, the source gives them in different places. Marks after values point to notes of the source that are not given here.

Columns and labels:
[1] = test system: high-fat diet-induced obese (DIO) mice; format: in vivo; details: in words; for high-density lipoprotein (HDL) levels: vs vehicle controls
Description: This Example provides the results from an in vivo study of denatonium acetate and sitagliptin in high-fat diet-induced obese (DIO) mice. C57BL/6NTac mice (at least 12 weeks of age) were fed with a high fat diet. All mice were dosed orally by gavage as (a) Vehicle group (N=15) dosed with distilled water BID, (b) DA group (N=15) dosed at 75 mg/kg (denatonium weight) BID; (c) sitagliptin group (N=15) dosed by gavage with 10 mg/kg QD; and (d) DA+ sitagliptin group (N=15) treated with DA at 75 mg/kg (denatonium based weight) BID and sitagliptin at 10 mg/kg by gavage QD. The groups were dosed for 8 weeks followed by a 5-7 day […] period. Body weight and body weight changes were measured three times per week. Serum biomarker levels for blood glucose (after fasting 6-8 hours), blood insulin, percentage of blood HvA1c, HDL, LDL, total triglycerides (TG), total cholesterol (TC) and bile acid were measured twice during the study at day 28 and at the end (day 56) of the study. Cumulative food intake and water consumption for each animal was measured.

[2] = cited from earlier work; for Effect on Body Weight (placebo-adjusted change from baseline) / Effect on HbA1c (placebo-adjusted change from baseline) / Effect on Body Weight (placebo-adjusted change from baseline), percent: QD 24-26 weeks
[3] = test system: ob/ob mice; details: sitagliptin 0.0018% in diet 12 weeks; alogliptin 42.2 mg/kg/day 28 days; cited from earlier work
[4] = test system: C57Bl/6J mice fed with high-fat diet; details: sitagliptin 0.004% in diet 12 weeks; vildagliptin 30 mg/kg/day 7 weeks; alogliptin 0.03% (wt/wt) in diet for life span; cited from earlier work
[5] = 18 weeks, on metformin; saxagliptin 5 mg daily; sitagliptin 100 mg; cited from earlier work
[6] = in words; cited from earlier work
[7] = semaglutide 3 mg, sitagliptin 100 mg, saxagliptin 2.5 mg, vildagliptin 50 mg, alogliptin 12.5 mg, linagliptin 5 mg
[8] = semaglutide 7 mg, sitagliptin 200 mg, saxagliptin 5 mg, vildagliptin 100 mg, alogliptin 25 mg
[9] = sitagliptin alone or in combination compared with controls, meta-analysis results

## N[C@@H](CC(=O)N1CCn2c(nnc2C(F)(F)F)C1)Cc1cc(F)c(F)cc1F [Sitagliptin, (2R)-4-oxo-4-[3-(trifluoromethyl)-5,6-dihydro[1,2,4]triazolo[4,3-a]pyrazin-7(8H)-yl]-1-(2,4,5-trifluorophenyl)butan-2-amine]
[1]; FIG. 22A
  high-density lipoprotein (HDL) levels: significantly decreased high-density lipoprotein (HDL) levels
[1]; day 56 (FIG. 22B)
  high-density lipoprotein (HDL) levels: significantly decreased high-density lipoprotein (HDL) levels
[1]; 56-day study summary
  weight loss: no weight loss effect was seen with longer duration dosing
[1]; DA 75 mg/kg BID, sitagliptin 10 mg/kg QD by gavage, 8 weeks
  effect on body weight (relative body weight percentage and relative body weight change): least effect on body weight
[2]; [7]
  Effect on Body Weight (placebo-adjusted change from baseline): 100 mg: +0.9 kg
  Effect on HbA1c (placebo-adjusted change from baseline): 100 mg: −0.79%
[2]; semaglutide 3 mg, sitagliptin 100 mg, saxagliptin 2.5 mg, vildagliptin 50 mg
  Effect on Body Weight (placebo-adjusted change from baseline), percent: (+1.1%)
[2]; [8]
  Effect on Body Weight (placebo-adjusted change from baseline): 200 mg: +1.0 kg
  Effect on HbA1c (placebo-adjusted change from baseline): 200 mg: −0.94%
[2]; semaglutide 7 mg, sitagliptin 200 mg, saxagliptin 5 mg, vildagliptin 100 mg
  Effect on Body Weight (placebo-adjusted change from baseline), percent: (+1.2%)
[2]; [9]
  HDL-C, weighted mean difference (WMD): 0.05 mmol/L) ^$$$
  serum TG, weighted mean difference [WMD]: [WMD] −0.24 mmol/L
[3]
  Control-adjusted Percent Change in Fasting Blood Glucose: −23.4%*
  Control-adjusted Percent Change in Insulin Level: +148%*
  Control-adjusted Percent Change in TG Level: −43.2%*
[4]
  Control-adjusted Percent Change in Body Weight Gain: −45.8%*
  Control-adjusted Percent Change in Fasting Blood Glucose: −20.9%*
  Control-adjusted Percent Change in Insulin Level: −41.7%
[5]
  reductions in hemoglobin A1c (HbA1c): −0.26%
[6]
  excretion and metabolism: renally excreted with minimal liver metabolism (via CYP3A4 and CYP2C8)
